The results in this text go back to US10766869B2, “Triazoles for the treatment of demyelinating dieases” (Vertex Pharmaceuticals Incorporated, priority 2015, dated 2020).

The assay concerns primary rat mixed cortical cells. Nature of the assay: In vitro myelination assay (MBP positive myelin strands, fold myelin pixels above background). The assay is classed as cell-based. The note with it: Rattus norvegicus; for fold induction at 1 µM: 1.0 μM compound; for fold induction at 10 µM: 10.0 μM compound. In short, it runs like this: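 Read-out is total MBP-positive myelin strand pixels per well, detected by custom ridge-tracing software and reported as fold over untreated baseline. Primary P1 rat mixed cortical cells received compound (1.0 or 10.0 μM) for 14 days, with medium half-replaced on days 6 and 10. Standard deviation was taken across all replicates.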

Setting [1] is: relative to baseline of no added compound, read-out: Fold myelin pixels above background.
Setting [2] is: read-out: Fold myelin pixels above background relative to baseline of no added compound.
The mark [3] stands for this setting: relative to baseline of no added compound, read-out: Fold myelin pixels above background, 1.0 μM.
Where [4] appears, read: relative to baseline of no added compound, read-out: Fold myelin pixels above background, 10.0 μM.

Read-outs that look alike come from different tables or passages of the source. Bounds are passed on as bounds.

Take `N#Cc1cc(Nc2ncn(-c3ccccc3)n2)cc(N2CCOCC2)c1` [Compound 608, 3-morpholino-5-[(1-phenyl-1,2,4-triazol-3-yl)amino]benzonitrile]: under setting [1], the fold induction at 1 µM lay in the range of 10 to 100 and the fold induction at 10 µM lay in the range of 1 to 10.

Regarding `Fc1cc(F)cc(-n2cnc(Nc3cc(N4CCN(C5COC5)CC4)cc(F)n3)n2)c1` [Compound 847, N-[1-(3,5-difluorophenyl)-1,2,4-triazol-3-yl]-6-fluoro-4-[4-(oxetan-3-yl)piperazin-1-yl]pyridin-2-amine], under setting [2], the fold induction at 1 µM was 1 to 10 and the fold induction at 10 µM fell in the range of 1 to 10.

Take `CC(C)(C)OC(=O)N1CCN(c2cc(C(F)(F)F)cc(Nc3ncn(-c4cc(F)cc(F)c4)n3)n2)CC1` [Compound 557, tert-butyl 4-[6-[[1-(3,5-difluorophenyl)-1,2,4-triazol-3-yl]amino]-4-(trifluoromethyl)-2-pyridyl]piperazine-1-carboxylate]: under setting [1], the fold induction at 1 µM was ≤ 1 and the fold induction at 10 µM is ≤ 1.

Turning to `CC(=O)N(C)C1CCN(c2cc(C)cc(Nc3ncn(-c4cc(F)cc(F)c4)n3)c2)C1` (stereo not drawn) [Compound 500, N-[1-[3-[[1-(3,5-difluorophenyl)-1,2,4-triazol-3-yl]amino]-5-methyl-phenyl]pyrrolidin-3-yl]-N-methyl-acetamide], under setting [1], the fold induction at 1 µM fell in the range of 100 to 1000 and the fold induction at 10 µM lay in the range of 1 to 10.

In the case of `COC1CCN(c2cc(C)cc(Nc3ncn(-c4cc(F)cc(F)c4)n3)c2)CC1` [Compound 1006, 1-(3,5-difluorophenyl)-N-[3-(4-methoxy-1-piperidyl)-5-methyl-phenyl]-1,2,4-triazol-3-amine], under setting [2], the fold induction at 1 µM was 10 to 100 and the fold induction at 10 µM lay within 1 to 10.

For `Cc1cc(Nc2ncn(-c3cc(F)cc(F)c3)n2)cc(N2CCOC(COC(C)C)C2)c1` (stereo not drawn) [Compound 927, 1-(3,5-difluorophenyl)-N-[3-[2-(isopropoxymethyl)morpholin-4-yl]-5-methyl-phenyl]-1,2,4-triazol-3-amine], under setting [2], the fold induction at 1 µM lay in the range of 10 to 100 and the fold induction at 10 µM lay in the range of 1 to 10.

With `Cc1cc(Nc2ncn(-c3cc(F)cc(F)c3)n2)nc(C2CCNCC2)c1` [Compound 744, N-[1-(3,5-difluorophenyl)-1,2,4-triazol-3-yl]-4-methyl-6-(4-piperidyl)pyridin-2-amine], under setting [1], the fold induction at 1 µM was 1 to 10 and the fold induction at 10 µM is ≤ 1.

For the molecule `c1ccc(-n2cnc(Nc3cc(C4CC4)nc(N4CCC5(CC4)OCCO5)c3)n2)cc1` [Compound 9, 2-cyclopropyl-6-(1,4-dioxa-8-azaspiro[4.5]decan-8-yl)-N-(1-phenyl-1,2,4-triazol-3-yl)pyridin-4-amine], the fold induction at 1 µM under setting [3] was 1000 to 10000. Under setting [4], the fold induction at 10 µM is 100 to 1000.

Regarding `Cc1cc(Nc2ncn(-c3ccnc(F)c3)n2)cc(NC2CCN(C3COC3)C2)c1` (stereo not drawn) [Compound 249, N3-[1-(2-fluoro-4-pyridyl)-1,2,4-triazol-3-yl]-5-methyl-N1-[1-(oxetan-3-yl)pyrrolidin-3-yl]benzene-1,3-diamine], the fold induction at 1 µM under setting [3] fell in the range of 10 to 100. The fold induction at 10 µM under setting [4] is ≤ 1.

Consider `CCc1cc(Nc2ncn(-c3ccc(C)c(F)c3)n2)cc(N2CCN(C3COC3)CC2)c1` [Compound 761, N-[3-ethyl-5-[4-(oxetan-3-yl)piperazin-1-yl]phenyl]-1-(3-fluoro-4-methyl-phenyl)-1,2,4-triazol-3-amine], for which, under setting [1], the fold induction at 1 µM was in the range of 1 to 10 and the fold induction at 10 µM is ≤ 1.

In the case of `Fc1ccc(-n2cnc(Nc3cc(F)cc(N4CCOCC4)c3)n2)cc1` [Compound 394, N-(3-fluoro-5-morpholino-phenyl)-1-(4-fluorophenyl)-1,2,4-triazol-3-amine], under setting [1], the fold induction at 1 µM lay in the range of 1 to 10 and the fold induction at 10 µM is ≤ 1.

On to `Cc1cc(Nc2ncn(-c3cc(F)cc(F)c3)n2)cc(N2CC(N3C4CCC3COC4)C2)c1` [Compound 746, 1-(3,5-difluorophenyl)-N-[3-methyl-5-[3-(3-oxa-8-azabicyclo[3.2.1]octan-8-yl)azetidin-1-yl]phenyl]-1,2,4-triazol-3-amine], for which, under setting [1], the fold induction at 1 µM lay in the range of 10 to 100 and the fold induction at 10 µM is 10 to 100.

Take `Cc1cc(Nc2ncn(-c3cccc(F)c3F)n2)cc(N2CCN(C3COC3)CC2)c1` [Compound 445, 1-(2,3-difluorophenyl)-N-[3-methyl-5-[4-(oxetan-3-yl)piperazin-1-yl]phenyl]-1,2,4-triazol-3-amine]: under setting [1], the fold induction at 1 µM lay within 10 to 100 and the fold induction at 10 µM is 10 to 100.

Consider `Cc1cc(Nc2ncn(-c3cc(F)cc(F)c3)n2)c(F)c(N2CCN(C(CO)CO)CC2)c1` [Compound 989, 2-[4-[3-[[1-(3,5-difluorophenyl)-1,2,4-triazol-3-yl]amino]-2-fluoro-5-methyl-phenyl]piperazin-1-yl]propane-1,3-diol], for which, under setting [2], the fold induction at 1 µM is ≤ 1 and the fold induction at 10 µM was ≤ 1.

As for `Cc1cc(Nc2ncn(-c3cc(F)cc(F)c3)n2)cc(N2CCN(C3CCN(C)CC3)CC2)c1` [Compound 956, 1-(3,5-difluorophenyl)-N-[3-methyl-5-[4-(1-methyl-4-piperidyl)piperazin-1-yl]phenyl]-1,2,4-triazol-3-amine], under setting [2], the fold induction at 1 µM was ≤ 1 and the fold induction at 10 µM is ≤ 1.

As to `Cc1cc(Nc2ncn(-c3cc(C)ccn3)n2)cc(N2CCN(C3COC3)CC2)c1` [Compound 54, N-[3-methyl-5-[4-(oxetan-3-yl)piperazin-1-yl]phenyl]-1-(4-methyl-2-pyridyl)-1,2,4-triazol-3-amine], the fold induction at 1 µM under setting [3] lay in the range of 10 to 100. Besides, under setting [4], the fold induction at 10 µM was in the range of 100 to 1000.

Take `Cc1cc(Nc2ncn(-c3ccncn3)n2)cc(N2CCN(C3COC3)CC2)c1` [Compound 174, N-[3-methyl-5-[4-(oxetan-3-yl)piperazin-1-yl]phenyl]-1-pyrimidin-4-yl-1,2,4-triazol-3-amine]: the fold induction at 1 µM under setting [3] is 1 to 10. Under setting [4], the fold induction at 10 µM was in the range of 10 to 100.

In the case of `Cc1cc(Nc2ncn(-c3cnccn3)n2)cc(N2CCN(C3(C)COC3)CC2)c1` [Compound 136, N-[3-methyl-5-[4-(3-methyloxetan-3-yl)piperazin-1-yl]phenyl]-1-pyrazin-2-yl-1,2,4-triazol-3-amine], under setting [3], the fold induction at 1 µM was in the range of 1 to 10. Also, the fold induction at 10 µM under setting [4] was 10 to 100.

Regarding `FC(F)c1cc(Nc2ncn(-c3ccccn3)n2)nc(N2CCN(C3COC3)CC2)c1` [Compound 532, 4-(difluoromethyl)-6-[4-(oxetan-3-yl)piperazin-1-yl]-N-[1-(2-pyridyl)-1,2,4-triazol-3-yl]pyridin-2-amine], under setting [1], the fold induction at 1 µM lay in the range of 10 to 100 and the fold induction at 10 µM was 10 to 100.

On to `COc1cc(-n2cnc(Nc3cc(C4CC4)cc(N4CCN(C5COC5)CC4)c3)n2)ncn1` [Compound 377, N-[3-cyclopropyl-5-[4-(oxetan-3-yl)piperazin-1-yl]phenyl]-1-(6-methoxypyrimidin-4-yl)-1,2,4-triazol-3-amine], for which the fold induction at 1 µM under setting [3] is 100 to 1000. Moreover, under setting [4], the fold induction at 10 µM was 10 to 100.

`CC(C)(O)[C@@H]1CN(c2cc(Nc3ncn(-c4cc(F)cc(F)c4)n3)cc(C(F)(F)F)c2)CCN1` [Compound 123, 2-[(2S)-4-[3-[[1-(3,5-difluorophenyl)-1,2,4-triazol-3-yl]amino]-5-(trifluoromethyl)phenyl]piperazin-2-yl]propan-2-ol]: the fold induction at 1 µM under setting [3] was in the range of 1 to 10. Also, the fold induction at 10 µM under setting [4] was ≤ 1.

For `Cc1cc(Nc2ncn(-c3cccc(F)c3)n2)cc(C2COC2)c1` [Compound 147, 1-(3-fluorophenyl)-N-[3-methyl-5-(oxetan-3-yl)phenyl]-1,2,4-triazol-3-amine], under setting [3], the fold induction at 1 µM fell in the range of 1000 to 10000. Besides, the fold induction at 10 µM under setting [4] fell in the range of 10 to 100.

In the case of `Fc1cc(F)cc(-n2cnc(Nc3cc(C4CC4)nc(N4CCCC4)c3)n2)c1` [Compound 170, 2-cyclopropyl-N-[1-(3,5-difluorophenyl)-1,2,4-triazol-3-yl]-6-pyrrolidin-1-yl-pyridin-4-amine], under setting [3], the fold induction at 1 µM lay in the range of 10 to 100. The fold induction at 10 µM under setting [4] is 100 to 1000.

Take `Cc1cc(Nc2ncn(-c3cccc(F)c3)n2)c(F)c(OC2CCOC2)c1` (stereo not drawn) [Compound 913, N-(2-fluoro-5-methyl-3-tetrahydrofuran-3-yloxy-phenyl)-1-(3-fluorophenyl)-1,2,4-triazol-3-amine]: under setting [2], the fold induction at 1 µM fell in the range of 10 to 100 and the fold induction at 10 µM is 10 to 100.

In the case of `COCC1CCN(c2cc(C(F)F)cc(Nc3ncn(-c4cccc(C(F)F)c4)n3)n2)CC1` [Compound 645, 4-(difluoromethyl)-N-[1-[3-(difluoromethyl)phenyl]-1,2,4-triazol-3-yl]-6-[4-(methoxymethyl)-1-piperidyl]pyridin-2-amine], under setting [1], the fold induction at 1 µM is 1 to 10 and the fold induction at 10 µM fell in the range of 10 to 100.

As to `CCc1cc(Nc2ncn(-c3ccc(C)c(Cl)c3)n2)cc(N2CCN(C3COC3)CC2)c1` [Compound 715, 1-(3-chloro-4-methyl-phenyl)-N-[3-ethyl-5-[4-(oxetan-3-yl)piperazin-1-yl]phenyl]-1,2,4-triazol-3-amine], under setting [1], the fold induction at 1 µM was 10 to 100 and the fold induction at 10 µM was in the range of 1 to 10.

Regarding `Cc1cc(Nc2ncn(-c3ccccc3)n2)cc(N2CCCC(C#N)C2)c1` (stereo not drawn) [Compound 146, 1-[3-methyl-5-[(1-phenyl-1,2,4-triazol-3-yl)amino]phenyl]piperidine-3-carbonitrile], the fold induction at 1 µM under setting [3] lay within 1000 to 10000. Moreover, the fold induction at 10 µM under setting [4] fell in the range of 100 to 1000.
